From patent US10697960B2, “CXCR4 and ROBO1 expression as markers for autoimmune diabetes” (BOARD OF SUPERVISORS OR LOUISANA STATE UNIVERSITY AND …, priority 2012, dated 2020)
“Also recorded” adds a separate entry of the source.

Legend:
[1] = system: NOD/ShiLtJ T cells on TNFα-activated MS1 islet endothelial cells; experiment: Parallel plate flow chamber T cell adhesion assay with SDF-1 peptide mimetic; format: cell-based, mouse; details: MS1 cells treated 4 hours with 10 ng/ml TNFα; 150 mPa
Experimental: Hydrodynamic flow chamber assays were performed as otherwise described in C. Sharp et al. (2008). Briefly, T cells isolated as described above were labeled with CellTracker Green (C7025; Life Technologies, Carlsbad, Calif., USA), rinsed, and resuspended at a concentration of 2×10^6 cells/ml in phenol red-free Hanks' balanced salt solution (HBSS). The cells were placed in a beaker that had been previously coated with Sigmacote (Sigma-Aldrich), kept at 37° C., and stirred at 60 rev/min. A flow chamber insert and gasket with a 0.5 cm flow width and 250 μm thickness (GlycoTech, Gaithersburg, Md., USA) were used with 35 mm cell culture dishes containing confluent MS1 cell cultures to form a parallel plate flow chamber. To activate endothelial cells, MS1 cells were treated for 4 to 6 hours at 37° C. with 10 ng/ml recombinant mouse TNFα (T7539; Sigma).
For the SDF-1 peptide mimetic T cell adhesion assay, MS1 cells were rinsed with HBSS and treated for 10 minutes with an SDF-1 peptide mimetic (AYWKENKEQ with two branched lysines as a linker between the two motifs, SEQ ID NO 1) at […]. This peptide was a linearized version of a cyclized SDF-1 analogue reported by Tudan et al., “C-terminal cyclization of an SDF-1 small peptide analogue dramatically increases receptor affinity and activation of CXCR4 receptor,” J. Med. Chem., vol. 45, pp. 2024-31 (2002). T cells were pumped through polypropylene tubing by a syringe pump (KD Scientific, Holliston, Mass., USA) across the endothelial monolayer at a physiological shear stress of 150 mPa. Real-time digital video images (minimum 28 frames/second) were captured with an epifluorescence microscope (TE-2000 Eclipse; Nikon, Tokyo, Japan) and digital camera (Model C4742-95-12ER: Hamamatsu Photonics, Hamamatsu, Japan). Simple PCI software (Hamamatsu Photonics) was used to analyze the video and to measure T cell rolling velocities. Cells were considered firmly adherent if they remained stationary for 10 seconds within the field of view. A minimum of three videos per plate and four plates per condition were used for analysis.
We examined whether a linear SDF-1 peptide mimetic containing the receptor-binding site could replicate the effect of full length SDF-1 in blocking adhesion of T cells to activated endothelium. MS1 cells were treated for 4 hours with 10 ng/ml TNFα, followed by treatment for 10 minutes with an SDF-1 peptide mimetic at 200, 1000, or 5000 ng/ml. Cells were then tested in a parallel plate flow chamber cell adhesion assay. Fluorescently labeled T cells obtained from NOD/ShiLtJ mice flowed over the endothelial monolayers at 150 mPa. […] Leucocyte adhesion videos were analyzed to calculate T cell rolling velocity and to determine whether the decrease in firm adhesion was due to a decreased number of rolling cells.

[2] = system: NOD/ShiLtJ T cells on MS1 endothelial cells; experiment: Anti-ROBO1 T cell detachment assay on MS1 endothelial monolayers under step-wise shear stress; format: cell-based, mouse; details: TNFα stimulation of MS1 cells versus unstimulated control
Experimental: T cell detachment assays were performed as otherwise described in C. Sharp et al. (2008). T cells were injected into the tubing via an inlet port upstream of the flow chamber at a concentration of 2×10^6 cells/ml and allowed to firmly adhere under static conditions for 15 minutes. Next, shear stress was initiated and increased in a step-wise manner every 30 seconds as follows: 35, 56, 91, 224, 504, and 980 mPa. The assay was recorded by video, which was analyzed to determine the percentage of cells detached at the end of each shear stress interval. For the anti-ROBO1 detachment assay, MS1 cells were treated for […] at 37° C. with TNFα as described above and then with 100 ng/ml recombinant mouse SDF-1α (460-SD; R&D Systems). T cells were pre-treated for 30 minutes at 37° C. with 20 μg/ml ROBO1 blocking antibody (GT15144; Neuromics, Edina, Minn., USA) or isotype control (GT15900; Neuromics).
Having established that T cell levels of ROBO1 differ between C57BL/6J and NOD/ShiLtJ mice, we investigated whether SDF-1-mediated firm adhesion defects were dependent on ROBO1-SLIT2 binding. We used a parallel plate flow chamber detachment assay. NOD/ShiLtJ T cells were first allowed to statically adhere to islet endothelial cell monolayers. […]

Substance: TNFα
- TNFα-induced adhesion versus untreated endothelium [1]: five times greater
- T cell attachment / resistance to shear-mediated detachment [2]: increased attachment; also recorded: increased the resistance of T cells to shear-mediated detachment
